{"source": "patent US20190030036A1", "about": "“PHOSPHODIESTERASE INHIBITOR TREATMENT” (Cyrano Therapeutics, Inc., priority 2013, published 2019)", "format_in_all_cases": "in vivo, human", "key": {"Body weight (Example 8)": {"assay": "Body weight (Example 8)"}, "patients with hyposmia": {"tested_on": "patients with hyposmia", "assay": "Subjective overall change in smell function; open trial of oral theophylline", "protocol": "Independently, patients were also required to grade their ability to smell daily on a scale from 0-100, with 0 reflecting no overall smell function over a 24 hour period, 100 reflecting normal overall smell function over this period and numbers from 0-100 reflecting their estimation of their overall ability to smell odors over this period.\nAfter determination of hyposmia, patients were treated in an open label, fixed design, controlled open trial. Patients were given an oral extended release theophylline in divided daily doses taken in the middle of breakfast and lunch. All patients were initially given 200 mg of theophylline; changes in this dose were made based upon subjective responses to therapy. If at a subsequent return visit, patients reported ≥5% subjective improvement in overall smell function, they continued on this same dose of theophylline and were reevaluated after four to six months of continued treatment. Results from any subsequent return from these improved patients were not included in any subsequent data report. All subsequent comparisons between treated and untreated patients were made only between those patients continuing in the study compared to their own measurements obtained in the untreated state. If patients reported <5% subjective improvement, their theophylline dose was increased by 200 mg daily and they were scheduled for retesting at the study site after two to four months at this new dosage. For patients that reported <5% improvement, this sequence continued until patients reached 800 mg of theophylline, at which time the study was considered completed.\nPatients returned for reevaluation after two to four months of treatment. Measurements of blood serum theophylline were measured by a fluorescence polarization assay (Abbott, Chicago, Ill.). At this time, subjective changes in smell function were measured independently (compared to patient's memory of previous normal smell function monitored by use of the patients' daily measurements) using the scale from −100−0-+100 previously described. After independently recording their subjective responses, smell function was measured for all four odors with DT, RT, ME and H determined without recourse to prior measurements.\nSubjective overall changes in smell acuity were reported by telephone and by FAX or email at two—four month intervals after treatment was initiated using the standardized form in which they measured daily changes in smell acuity using the −100−0-+100 scale as noted above. Using the same criteria noted above, if at their initial two—four month call-in they reported improvement in smell acuity of ≥5%, they continued at 200 mg and returned to the study site at four—six months on this treatment dose. If they reported improvement in smell acuity of <5% their dose of theophylline was increased to 400 mg for an additional two—four months and they then called the study site at the end of this period."}, "[1]": {"tested_on": "patients with hyposmia and hypogeusia", "assay": "Olfactometry (DT, RT, ME, HR for 4 odors) (Example 8)", "conditions": "intranasal theophylline vs before treatment or after oral theophylline", "excerpt": "Measurements included determination of detection thresholds (DTs), recognition thresholds (RTs), magnitude estimation (ME), and hedonic response (HR) for 4 odors (e.g., pyridine [dead fish], nitrobenzene [bitter almond], thiophene [petroleum], and amyl acetate [banana oil]) (olfactometry) and for 4 tastants (e.g., sodium chloride [salt], sucrose [sweet], […] [sour], and urea [bitter]) (gustometry)."}}, "data": [{"smiles": "Cn1c(=O)c2[nH]cnc2n(C)c1=O", "note": "[theophylline]", "values": [{"measurement": "mean (SEM) weight increase from pretreatment values", "setting": "Body weight (Example 8); intranasal theophylline 20 μg/d in each naris", "value": "2.5 (0.5) kg"}, {"measurement": "mean (SEM) weight increase from pretreatment values", "setting": "Body weight (Example 8); oral theophylline 200 to 800 mg/d", "value": "1.5 (0.4) kg"}, {"measurement": "patients improved ≥5% (subjective smell function)", "setting": "patients with hyposmia; oral theophylline 200 mg daily, two-six months, 199 returning patients", "value": 17.1, "unit": "%"}, {"measurement": "improved patients who considered their smell function had returned to normal", "setting": "patients with hyposmia; oral theophylline 200 mg daily, of 34 improved patients", "value": 26.5, "unit": "%"}, {"measurement": "non-returning patients reporting >5% improvement", "setting": "patients with hyposmia; oral theophylline 200 mg, 15 non-returning patients", "value": 46.7, "unit": "%"}, {"measurement": "improved non-returning patients reporting a return to normal", "setting": "patients with hyposmia; oral theophylline 200 mg, non-returning patients", "value": 14.3, "unit": "%"}, {"measurement": "patients improved ≥5% (subjective smell function)", "setting": "patients with hyposmia; oral theophylline 400 mg daily, two-six months, 120 patients", "value": 29.2, "unit": "%"}, {"measurement": "improved patients who considered their smell function had returned to normal", "setting": "patients with hyposmia; oral theophylline 400 mg daily, of 35 improved patients", "value": 8.6, "unit": "%"}, {"measurement": "patients improved ≥5% (subjective smell function)", "setting": "patients with hyposmia; oral theophylline 600 mg daily, two-12 months, 160 patients", "value": 41.2, "unit": "%"}, {"measurement": "patients who considered their smell function had returned to normal", "setting": "patients with hyposmia; oral theophylline 600 mg daily, 17 patients", "value": 10.6, "unit": "%"}, {"measurement": "patients improved ≥5% (subjective smell function)", "setting": "patients with hyposmia; oral theophylline 800 mg daily, two-12 months, 28 patients", "value": 53.6, "unit": "%"}, {"measurement": "patients who considered their smell function had returned to normal", "setting": "patients with hyposmia; oral theophylline 800 mg daily, three patients", "value": 33, "unit": "%"}, {"measurement": "improved patients reporting smell function returned to normal", "setting": "patients with hyposmia; oral theophylline 200-600 mg, Type III hyposmia", "value": 60, "unit": "%"}, {"measurement": "patients reporting >5% improvement", "setting": "patients with hyposmia; oral theophylline 200-600 mg, eight patients with Type III hyposmia", "value": 62.5, "unit": "%"}, {"measurement": "patients reporting >5% improvement", "setting": "patients with hyposmia; oral theophylline 200-800 mg, 96 patients with Type I hyposmia", "value": 33.3, "unit": "%"}, {"measurement": "patients reporting >5% improvement", "setting": "patients with hyposmia; oral theophylline 200-800 mg, 208 patients with Type II hyposmia", "value": 62, "unit": "%"}, {"measurement": "improved patients reporting smell function returned to normal", "setting": "patients with hyposmia; oral theophylline 200-800 mg, Type I hyposmia", "value": 15.6, "unit": "%"}, {"measurement": "improved patients reporting smell function returned to normal", "setting": "patients with hyposmia; oral theophylline 200-800 mg, Type II hyposmia", "value": 20.2, "unit": "%"}, {"measurement": "responsive patients who considered smell function returned to normal levels", "setting": "patients with hyposmia; oral theophylline, 34 of 157", "value": 21.7, "unit": "%"}, {"measurement": "patients subjectively responsive to treatment", "setting": "patients with hyposmia; oral theophylline, 157 of the 312 patients", "value": 50.3, "unit": "%"}, {"measurement": "all patients in the study who considered smell function returned to normal", "setting": "patients with hyposmia; oral theophylline, all 312 patients", "value": 10.9, "unit": "%"}, {"measurement": "DTs and RTs for each odor", "setting": "[1]", "value": "lower (more sensitive)"}, {"measurement": "Magnitude estimations for each odor", "setting": "[1]", "value": "higher (more intense)"}]}]}
